For seven compounds, IC50 and viability, T/C results are on record in PubChem BioAssay AID1919015 (Molecular Pharmacology Branch, DTP, NCI, 2023).

Values joined by “and” are separate entries in the source; they are usually repeats but may differ in a detail not shown here. Equal values may be shown once.

The test system of the test is OVCAR-5 complex spheroids with HUVEC/MSC, viability, % test/control. Description: Anticancer human tumor OVCAR-5 cell line growth inhibition [AhR].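 As to all read-outs here: spheroids exposed to compounds for 7 days.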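 As to viability, T/C: 100% = DMSO vehicle control wells.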 As to conditions: for viability, T/C: stronger effect = lower value. The essentials: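 Complex tumor spheroids co-cultured with HUVEC and human MSC stroma; AhR antagonists tested in combination with standard-of-care and investigational agents. Top concentration at or near clinical Cmax (else 10 microM), half-log dilutions; growth expressed as percent test/control.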

Setting [1] is: curve of first compound, second compound 0.1 µM.
The mark [2] stands for this setting: curve of first compound, second compound 0.316 µM.
[3] abbreviates: curve of first compound, second compound 1 µM.
Setting [4] is: curve of first compound, second compound 3.16 µM.
Setting [5] is: curve of first compound, second compound 10 µM.
[6] abbreviates: second compound 0.1 µM, first compound 0.0316 µM.
Where [7] appears, read: second compound 0.1 µM, first compound 0.1 µM.
The mark [8] stands for this setting: second compound 0.1 µM, first compound 0.316 µM.
Where [9] appears, read: second compound 0.1 µM, first compound 1 µM.
Setting [10] is: second compound 0.1 µM, first compound 3.16 µM.
Setting [11] is: second compound 0.1 µM, first compound 10 µM.
Where [12] appears, read: second compound 0.316 µM, first compound 0.0316 µM.
The mark [13] stands for this setting: second compound 0.316 µM, first compound 0.1 µM.
Setting [14] is: second compound 0.316 µM, first compound 0.316 µM.
Setting [15] is: second compound 0.316 µM, first compound 1 µM.
The mark [16] stands for this setting: second compound 0.316 µM, first compound 3.16 µM.
[17] abbreviates: second compound 0.316 µM, first compound 10 µM.
Where [18] appears, read: second compound 1 µM, first compound 0.0316 µM.
Setting [19] is: second compound 1 µM, first compound 0.1 µM.
Setting [20] is: second compound 1 µM, first compound 0.316 µM.
[21] abbreviates: second compound 1 µM, first compound 1 µM.
Setting [22] is: second compound 1 µM, first compound 3.16 µM.
Setting [23] is: second compound 1 µM, first compound 10 µM.
Where [24] appears, read: second compound 3.16 µM, first compound 0.0316 µM.
The mark [25] stands for this setting: second compound 3.16 µM, first compound 0.1 µM.
Where [26] appears, read: second compound 3.16 µM, first compound 0.316 µM.
Where [27] appears, read: second compound 3.16 µM, first compound 1 µM.
Setting [28] is: second compound 3.16 µM, first compound 3.16 µM.
The mark [29] stands for this setting: second compound 3.16 µM, first compound 10 µM.
Setting [30] is: second compound 10 µM, first compound 0.0316 µM.
[31] abbreviates: second compound 10 µM, first compound 0.1 µM.
Where [32] appears, read: second compound 10 µM, first compound 0.316 µM.
Where [33] appears, read: second compound 10 µM, first compound 1 µM.
Where [34] appears, read: second compound 10 µM, first compound 3.16 µM.
Setting [35] is: second compound 10 µM, first compound 10 µM.

Broadly, the IC50 is the concentration at which inhibition is half-maximal. What is called viability, T/C is the result in the treated group divided by that in the control group, in per cent. Take `NS(=O)(=O)OCC1CC(n2ccc3c(NC4CCc5ccccc54)ncnc32)CC1O` (stereo not drawn) + Cc1ccccc1N=Nc1ccc(NC(=O)c2ccnn2C)c(C)c1: the IC50 reads like this: under setting [1], 201 nM; under setting [2], 178 nM; under setting [3], 141 nM; under setting [4], 96.3 nM; under setting [5], 94.6 nM. The viability, T/C is, setting by setting: under setting [6], 96.4%; under setting [7], 66.9%; under setting [8], 40.8%; under setting [9], 16.2%; under setting [10], 9.98%; under setting [11], 10.5%. The viability, T/C under setting [12] is 88.3%; the viability, T/C under setting [13] was 63.3%; the viability, T/C under setting [14] is 37.8%; the viability, T/C under setting [15] is 14.3%; the viability, T/C under setting [16] is 11.1%; the viability, T/C under setting [17] is 9.31%. The viability, T/C under setting [18] is 82.5%; the viability, T/C under setting [19] is 55.6%; the viability, T/C under setting [20] was 36.2%; the viability, T/C under setting [21] was 14.2%; the viability, T/C under setting [22] is 9.92%; the viability, T/C under setting [23] is 9.81%. For the same compound, the viability, T/C under setting [24] is 66.6%; the viability, T/C under setting [25] is 47.7%; the viability, T/C under setting [26] was 32.2%; the viability, T/C under setting [27] was 12.7%; the viability, T/C under setting [28] was 9.52%; the viability, T/C under setting [29] was 8.47%. The viability, T/C runs as follows: under setting [30], 69.5%; under setting [31], 47.7%; under setting [32], 29.2%; under setting [33], 11%; under setting [34], 7.66%; under setting [35], 7.56%.
As to `CC[C@@]1(O)C(=O)OCc2c1cc1n(c2=O)Cc2cc3c(CN(C)C)c(O)ccc3nc2-1`, the viability, T/C reads like this: (compound 0.000316 µM) 102% and 99.2% and 104%; (compound 0.001 µM) 101% and 98.1% and 106%; (compound 0.00316 µM) 97.5% and 89.9% and 98.5%; (compound 0.01 µM) 88% and 79.8% and 89.2%; (compound 0.0316 µM) 57% and 37.1% and 61.3%; (compound 0.1 µM) 50.6% and 40.1% and 46.5%. In addition, the IC50 (curve of compound) was > 100 nM and 23 nM and 75.9 nM.
In the case of `CC1(C)CCC(CN2CCN(c3ccc(C(=O)NS(=O)(=O)c4ccc(NCC5CCOCC5)c([N+](=O)[O-])c4)c(Oc4cnc5[nH]ccc5c4)c3)CC2)=C(c2ccc(Cl)cc2)C1` + Cc1cncc(-c2nc(NCCc3c[nH]c4ccccc34)c3ncn(C(C)C)c3n2)c1, the IC50 reads like this: under setting [1], more than 10000 nM; under setting [2], more than 10000 nM; under setting [3], more than 10000 nM; under setting [4], more than 10000 nM; under setting [5], less than 31.6 nM. The viability, T/C is 105% under setting [6]; 103% under setting [7]; 106% under setting [8]; 106% under setting [9]; 109% under setting [10]; 90.1% under setting [11]. For the same compound, the viability, T/C is 101% under setting [12]; 103% under setting [13]; 102% under setting [14]; 105% under setting [15]; 109% under setting [16]; 89.5% under setting [17]. Moreover, the viability, T/C is 101% under setting [18]; 100% under setting [19]; 102% under setting [20]; 103% under setting [21]; 104% under setting [22]; 86.8% under setting [23]. In addition, the viability, T/C is, setting by setting: under setting [24], 81.5%; under setting [25], 85.6%; under setting [26], 86.3%; under setting [27], 83.4%; under setting [28], 88.5%; under setting [29], 75.3%. In addition, the viability, T/C runs as follows: under setting [30], 4.28%; under setting [31], 4.26%; under setting [32], 5.72%; under setting [33], 3.52%; under setting [34], 4.43%; under setting [35], 9.47%.
As to `O=C(c1cc(Cc2n[nH]c(=O)c3ccccc23)ccc1F)N1CCN(C(=O)C2CC2)CC1`, the viability, T/C (compound 0.0316 µM) is 98.3% and 103% and 100%; the viability, T/C (compound 0.1 µM) was 97.6% and 99% and 96.8%; the viability, T/C (compound 0.316 µM) is 92.4% and 97.2% and 96.1%; the viability, T/C (compound 1 µM) was 93% and 93.2% and 98.6%; the viability, T/C (compound 3.16 µM) was 90.9% and 91% and 92.9%; the viability, T/C (compound 10 µM) was 83.3% and 83.5% and 84.2%. The IC50 (curve of compound) was more than 10000 nM.
Consider `O=C(c1cc(Cc2n[nH]c(=O)c3ccccc23)ccc1F)N1CCN(C(=O)C2CC2)CC1` + Cc1cncc(-c2nc(NCCc3c[nH]c4ccccc34)c3ncn(C(C)C)c3n2)c1, for which the IC50 was more than 10000 nM under setting [1]; more than 10000 nM under setting [2]; more than 10000 nM under setting [3]; more than 10000 nM under setting [4]; less than 31.6 nM under setting [5]. For the same compound, the viability, T/C is 93.8% under setting [6]; 97.7% under setting [7]; 93.7% under setting [8]; 87.5% under setting [9]; 91.5% under setting [10]; 86.8% under setting [11]. In addition, the viability, T/C runs as follows: under setting [12], 93.9%; under setting [13], 98.7%; under setting [14], 95.4%; under setting [15], 89.9%; under setting [16], 84.3%; under setting [17], 83.7%. The viability, T/C by setting is: under setting [18], 84.5%; under setting [19], 87.7%; under setting [20], 91.6%; under setting [21], 87%; under setting [22], 86.2%; under setting [23], 77.3%. Also, the viability, T/C under setting [24] was 78.2%; the viability, T/C under setting [25] is 77.8%; the viability, T/C under setting [26] is 75.2%; the viability, T/C under setting [27] is 73.2%; the viability, T/C under setting [28] was 71.8%; the viability, T/C under setting [29] was 64.8%. Besides, the viability, T/C is 14.8% under setting [30]; 12.9% under setting [31]; 15% under setting [32]; 12% under setting [33]; 13.7% under setting [34]; 13.1% under setting [35].
On to `Nc1ncn(C2CC(O)C(CO)S2)c(=O)n1` (stereo not drawn), for which the viability, T/C was 103% and 101% and 99.6% (compound 0.000949 µM); 96.8% and 106% and 99.3% (compound 0.003 µM); 102% and 103% and 97.4% (compound 0.00949 µM); 99.8% and 99.5% and 105% (compound 0.03 µM); 91.7% and 90.7% and 99% (compound 0.0949 µM); 83.8% and 77.6% and 83.7% (compound 0.3 µM). Moreover, under “curve of compound”, the IC50 was more than 300 nM.
Regarding `O=C(C=Cn1cnc(-c2cc(C(F)(F)F)cc(C(F)(F)F)c2)n1)NNc1cnccn1`, the viability, T/C reads like this: (compound 0.00949 µM) 109% and 108% and 104%; (compound 0.03 µM) 108% and 109% and 105%; (compound 0.0949 µM) 101% and 99.5% and 96.1%; (compound 0.3 µM) 85.9% and 76.1% and 78.1%; (compound 0.949 µM) 68.2% and 58.4% and 60.8%; (compound 3 µM) 47% and 42% and 40.6%. Moreover, where the note is “curve of compound”, the IC50 was 2560 nM and 1610 nM and 1710 nM.
